Results published in ChEMBL document CHEMBL1201862, “PubChem BioAssay data set” (2004).
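Grown in 96-well plates, cells were treated for 48 hours with each compound at five concentrations. Insufficient inhibition: endpoint recorded as highest concentration tested. Here, GI50 denotes the concentration required for 50% inhibition of growth.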 Activity calls are given as the source filed them. No stated cut-off is given here; in the data, active = GI50 up to about 1.1 µM and inactive = higher.

How the values were obtained:
Assay in all cases: inhibition of tumour cell growth, NCI panel, 48 h
786-0 = system: 786-0
A498 = system: A498
A549 = system: A549
ACHN = system: ACHN
BT-549 = system: BT-549
CAKI-1 = system: CAKI-1
CCRF-CEM = system: CCRF-CEM
COLO 205 = system: COLO 205
DU-145 = system: DU-145
EKVX = system: EKVX
HCC 2998 = system: HCC 2998
HCT-116 = system: HCT-116
HCT-15 = system: HCT-15
HL-60 = system: HL-60
HOP-62 = system: HOP-62
HOP-92 = system: HOP-92
HT-29 = system: HT-29
Hs-578T = system: Hs-578T
IGROV-1 = system: IGROV-1
K562 = system: K562
KM12 = system: KM12
LOX IMVI = system: LOX IMVI
M14 = system: M14
MCF7 = system: MCF7
MDA-MB-231 = system: MDA-MB-231
MDA-MB-435 = system: MDA-MB-435
MDA-N = system: MDA-N
MOLT-4 = system: MOLT-4
Malme-3M = system: Malme-3M
NCI-H226 = system: NCI-H226
NCI-H23 = system: NCI-H23
NCI-H460 = system: NCI-H460
NCI-H522 = system: NCI-H522
NCI/ADR-RES = system: NCI/ADR-RES
OVCAR-3 = system: OVCAR-3
OVCAR-4 = system: OVCAR-4
OVCAR-5 = system: OVCAR-5
OVCAR-8 = system: OVCAR-8
PC-3 = system: PC-3
RPMI-8226 = system: RPMI-8226
RXF 393 = system: RXF 393
SF-268 = system: SF-268
SF-295 = system: SF-295
SF-539 = system: SF-539
SK-MEL-28 = system: SK-MEL-28
SK-MEL-2 = system: SK-MEL-2
SK-MEL-5 = system: SK-MEL-5
SK-OV-3 = system: SK-OV-3
SN12C = system: SN12C
SNB-19 = system: SNB-19
SNB-75 = system: SNB-75
SR = system: SR
SW-620 = system: SW-620
T47D = system: T47D
TK-10 = system: TK-10
U-251 = system: U-251
UACC-257 = system: UACC-257
UACC-62 = system: UACC-62
UO-31 = system: UO-31

Structure (SMILES): C=C1C[C@@H](O)[C@@H](Br)C(C)(C)[C@]12CCC(C)(Cl)C(Br)C2 (stereo partly drawn)
- GI50 (786-0): 25.9 µM (inactive)
- GI50 (A498): > 46.9 µM (inactive)
- GI50 (A549): 26.2 µM (inactive)
- GI50 (ACHN): 32.8 µM (inactive)
- GI50 (BT-549): 35.5 µM (inactive)
- GI50 (CAKI-1): 34.8 µM (inactive)
- GI50 (CCRF-CEM): 41.6 µM (inactive)
- GI50 (COLO 205): 4.86 µM (inactive)
- GI50 (DU-145): 62.4 µM (inactive)
- GI50 (EKVX): 4.35 µM (inactive)
- GI50 (HCC 2998): 13.2 µM (inactive)
- GI50 (HCT-116): 32.3 µM (inactive)
- GI50 (HCT-15): 35.1 µM
- GI50 (HL-60): 25.6 µM (inactive)
- GI50 (HOP-62): 19.1 µM (inactive)
- GI50 (HOP-92): 24.2 µM (inactive)
- GI50 (HT-29): 29 µM (inactive)
- GI50 (Hs-578T): 27.4 µM (inactive)
- GI50 (IGROV-1): 7.93 µM (inactive)
- GI50 (K562): 53.5 µM (inactive)
- GI50 (KM12): 0.929 µM (active)
- GI50 (LOX IMVI): 21.3 µM (inactive)
- GI50 (M14): 34 µM (inactive)
- GI50 (MCF7): 25.1 µM (inactive)
- GI50 (MDA-MB-231): 40.7 µM (inactive)
- GI50 (MDA-MB-435): 23.9 µM (inactive)
- GI50 (MDA-N): 25.5 µM (inactive)
- GI50 (MOLT-4): 36.4 µM (inactive)
- GI50 (Malme-3M): 22 µM (inactive)
- GI50 (NCI-H226): 20.9 µM (inactive)
- GI50 (NCI-H23): 21.1 µM (inactive)
- GI50 (NCI-H460): 27.3 µM (inactive)
- GI50 (NCI-H522): 17.5 µM (inactive)
- GI50 (NCI/ADR-RES): 21.4 µM (inactive)
- GI50 (OVCAR-3): 15.7 µM (inactive)
- GI50 (OVCAR-4): 21.9 µM (inactive)
- GI50 (OVCAR-5): 0.736 µM (active)
- GI50 (OVCAR-8): 34.7 µM (inactive)
- GI50 (PC-3): 0.431 µM (active)
- GI50 (RPMI-8226): 34 µM (inactive)
- GI50 (RXF 393): 28.6 µM (inactive)
- GI50 (SF-268): 32 µM (inactive)
- GI50 (SF-295): 30.6 µM (inactive)
- GI50 (SF-539): 16.8 µM (inactive)
- GI50 (SK-MEL-28): 55.7 µM (inactive)
- GI50 (SK-MEL-2): 15.1 µM (inactive)
- GI50 (SK-MEL-5): 7.71 µM (inactive)
- GI50 (SK-OV-3): 57.3 µM (inactive)
- GI50 (SN12C): 18.8 µM (inactive)
- GI50 (SNB-19): > 31.6 µM (inactive)
- GI50 (SNB-75): 18.9 µM (inactive)
- GI50 (SR): 40.8 µM (inactive)
- GI50 (SW-620): 39.9 µM (inactive)
- GI50 (T47D): 19.5 µM (inactive)
- GI50 (TK-10): 1.58 µM (inactive)
- GI50 (U-251): 24.4 µM (inactive)
- GI50 (UACC-257): 21.6 µM (inactive)
- GI50 (UACC-62): 40.5 µM (inactive)
- GI50 (UO-31): 59 µM (inactive)

Structure (SMILES): Cc1noc(C)c1-n1nc2ccc3nonc3c2n1
- GI50 (786-0): 37.5 µM (inactive)
- GI50 (A498): 32.7 µM (inactive)
- GI50 (A549): > 100 µM (inactive)
- GI50 (ACHN): > 88.5 µM (inactive)
- GI50 (BT-549): 79.3 µM (inactive)
- GI50 (CAKI-1): > 83.8 µM (inactive)
- GI50 (CCRF-CEM): > 100 µM (inactive)
- GI50 (COLO 205): > 100 µM (inactive)
- GI50 (DU-145): > 100 µM (inactive)
- GI50 (EKVX): 35.9 µM (inactive)
- GI50 (HCC 2998): > 100 µM (inactive)
- GI50 (HCT-116): 56.6 µM (inactive)
- GI50 (HCT-15): > 100 µM
- GI50 (HL-60): > 100 µM (inactive)
- GI50 (HOP-62): 22.5 µM (inactive)
- GI50 (HOP-92): 29.1 µM (inactive)
- GI50 (HT-29): > 100 µM (inactive)
- GI50 (Hs-578T): 29 µM (inactive)
- GI50 (IGROV-1): 81.7 µM (inactive)
- GI50 (K562): > 100 µM (inactive)
- GI50 (KM12): > 100 µM (inactive)
- GI50 (LOX IMVI): > 100 µM (inactive)
- GI50 (M14): > 100 µM (inactive)
- GI50 (MCF7): > 67.8 µM (inactive)
- GI50 (MDA-MB-231): > 65.9 µM (inactive)
- GI50 (MDA-MB-435): > 100 µM (inactive)
- GI50 (MDA-N): > 100 µM (inactive)
- GI50 (MOLT-4): > 100 µM (inactive)
- GI50 (Malme-3M): > 100 µM (inactive)
- GI50 (NCI-H226): > 81.8 µM (inactive)
- GI50 (NCI-H23): > 72.8 µM (inactive)
- GI50 (NCI-H460): > 100 µM (inactive)
- GI50 (NCI-H522): > 78.7 µM (inactive)
- GI50 (NCI/ADR-RES): > 100 µM (inactive)
- GI50 (OVCAR-3): > 100 µM (inactive)
- GI50 (OVCAR-4): > 100 µM (inactive)
- GI50 (OVCAR-5): > 100 µM (inactive)
- GI50 (OVCAR-8): 50.7 µM (inactive)
- GI50 (PC-3): > 100 µM (inactive)
- GI50 (RPMI-8226): > 100 µM (inactive)
- GI50 (RXF 393): 23 µM (inactive)
- GI50 (SF-268): 41 µM (inactive)
- GI50 (SF-295): 31.7 µM (inactive)
- GI50 (SF-539): 41.5 µM (inactive)
- GI50 (SK-MEL-28): > 100 µM (inactive)
- GI50 (SK-MEL-2): 48.9 µM (inactive)
- GI50 (SK-MEL-5): > 100 µM (inactive)
- GI50 (SK-OV-3): 34.8 µM (inactive)
- GI50 (SN12C): > 100 µM (inactive)
- GI50 (SNB-19): 32.3 µM (inactive)
- GI50 (SNB-75): 33.1 µM (inactive)
- GI50 (SR): > 100 µM (inactive)
- GI50 (SW-620): > 100 µM (inactive)
- GI50 (T47D): > 67.3 µM (inactive)
- GI50 (TK-10): 24.8 µM (inactive)
- GI50 (U-251): 30.1 µM (inactive)
- GI50 (UACC-257): > 100 µM (inactive)
- GI50 (UACC-62): > 59.8 µM (inactive)
- GI50 (UO-31): 47.2 µM (inactive)
